From patent US12447135B2 (University of South Florida, priority 2021, dated 2025)

Assays:
FFAR2 signaling [1] = test: cAMP-Glo assay, forskolin-induced cAMP in SK-N-SH cells; assay type: cell-based, human; settings: 10 μM compound, 10 μM forskolin
Protocol: FFAR2 is a Gi/o signaling receptor, which reduces cytosolic cAMP (Falomir-Lockhart et al., 2019). To determine the FFAR2 signaling activating potential of selected compounds, the cAMP-Glo™ Assay was used to measure intracellular cAMP. SK-N-SH cells (1×10^3 cells per well) were plated in a white 96-well plate for 24 h and then treated with 10 μM compounds and 10 μM forskolin (a positive control) dissolved in induction buffer. The cAMP levels were detected using a Luminescence Microplate Reader.

SK-N-SH cells [2] = test: Total protein ubiquitination, western blot (P4D1); assay type: cell-based, human
Protocol: (§1) To determine the FFAR2 signal activating property of selected compounds, SK-N-SH cells were treated with 10 μM of shortlisted compounds for 30 min at 37° C. and harvested for total protein extraction. Cells were harvested after 30 min of incubation because ERK1/2 phosphorylation upon FFAR2 activation is a quick event (Jiao et al., 2002; Bhattacharjee et al., 2010). Total protein from the cells was extracted using a lysis buffer [consisting of 10 mmol/L Tris (pH 7.6), 150 mmol/L NaCl, 10 mmol/L Sodium orthovanadate, 10 mmol/L Sodium Pyrophosphate, 100 mmol/L Sodium fluoride, 1 mmol/L EDTA, 1 mmol/L EGTA, 1% Triton X-100, 0.5% NP-40 and a cocktail of protease inhibitors (Roche); Yadav et al., 2011, 2017; Ahmadi et al., 2019, 2020a]. After sonication, cell extracts were centrifuged at 8,000×g for 10 min at 4° C., and the supernatant was separated in a fresh tube. The total protein concentration of the supernatant was measured using a BCA protein assay kit. […] Band densities were also quantified using NIH ImageJ software. β-actin was used as an internal control.

SK-N-SH cells [3] = test: Aβ-induced neurotoxicity, MTT viability assay; assay type: cell-based, human
Protocol: To determine the impact of FFAR2 inhibition on Aβ-induced neuronal cell toxicity, the MTT viability assay was performed (Ronicke et al., 2008). SK-N-SH cells (1×10^3 cells per well) were plated in a 96-well plate containing DMEM medium supplemented with 10% FBS and 1% antibiotics and grown at 37° C. for 24 h. Then, media was removed, and cells were washed with PBS before being replenished with DMEM media containing 1% FBS and 10 μM FFAR2 inhibitor (CATPB, Tocris) and incubated at 37° C. for 2 h. Then, cells were treated with Aβ 25-32 peptide (25 μM, Sigma) and incubated for 4 h. Afterward, the media was replaced with 100 μl of fresh media, and 10 μl of MTT reagent (5 mg/ml in phosphate buffer [pH 7.2]) was added and mixed in each well before an additional 4 h incubation. Then, DMSO (50 μl) was added in each well and mixed thoroughly to dissolve formazan crystals. The absorbance was measured at 570 nm.

FFAR2 signaling [4] = test: Intracellular calcium assay in SK-N-SH cells; assay type: cell-based, human; settings: 10 μM
Protocol: FFAR2 signaling activation increases intracellular calcium (Falomir-Lockhart et al., 2019). To further determine the activation potential of selected compounds for this signaling, we plated the SK-N-SH cells (1.25×10^3 cells per well) into a dark 96-well plate for 24 h. […] Also, 0.01 M EDTA (Sigma) and […] carbachol were used as negative and additional positive controls, respectively. After 15 min, the cells were treated with […] Direct™ calcium reagent along with […] probenecid and further incubated at 37° C. for 30 min. The fluorescence was measured with excitation at 494 nm and emission at 516 nm using a microplate reader.

C. elegans CL4176 = test: Paralysis assay in C. elegans CL4176; assay type: in vivo; settings: CL4176 worms, 10 μM, vs non-treated controls
Protocol: For paralysis assays, synchronized eggs of CL4176 were kept at 16° C. for 48 h, and the worms were transferred onto NGM plates. […] Counting was performed at 2 h intervals, typically after 14 h, at 23° C., and until the last worm became paralyzed. […] Each C. elegans experiment was conducted with at least 100 worms.

SK-N-SH cells [5] = test: Aβ accumulation in SK-N-SH cells (western blot); assay type: cell-based, human; settings: vs Aβ-only treated controls, FFAR2 dependent
Protocol: as §1

FFAR2 signaling [6] = test: Western blot of phospho-ERK1/2 in SK-N-SH cells (FFAR2 signal activation); assay type: cell-based, human; settings: 10 μM, 30 min
Protocol: To determine the FFAR2 signal activating property of selected compounds, SK-N-SH cells were treated with 10 μM of shortlisted compounds for 30 min at 37° C. and harvested for total protein extraction. […] After sonication, cell extracts were centrifuged at 8,000×g for 10 min at 4° C., and the supernatant was separated in a fresh tube. The total protein concentration of the supernatant was measured using a BCA protein assay kit. An equal amount of total protein (45 μg) from each sample was dissolved in loading buffer and loaded in 4% stacking gel and 10% separating SDS-PAGE gel and resolved at 100 V. Proteins were transferred on a 0.22 μm PVDF membrane and blots were developed with anti-ERK1/2, anti-phosphoERK1/2, ubiquitin (P4D1), and Aβ (6E10) primary antibodies followed by their secondary antibodies and bands were visualized using the Pierce™ Fast Western Blot Kit, ECL Substrate acquired using Syngene Pxi. Band densities were also quantified using NIH ImageJ software. β-actin was used as an internal control.

SK-N-SH cells [7] = test: Senescence β-galactosidase staining; assay type: cell-based, human; settings: Aβ-treated cells, Fenchol
Protocol: After overnight incubation, Aβ 25-32 (25 μM) peptide was added to the cells for 4 h. The Senescence β-Galactosidase Staining Kit (Cell Signaling, USA) was used for the detection of the expression of β-galactosidase activity, following the manufacturer's instructions.

CC12CCC(C1)C(C)(C)C2O (centres unmarked) [Fenchol] was tested, and the “cAMP upon Forskolin-stimulation, ascending order” value (FFAR2 signaling [1]) was “Fenchol<Carvamenthenol<α-Terpineol<Carene<Pentanone<Octopamine<Camphene”, the “decrease in cAMP upon Forskolin-stimulation” value (FFAR2 signaling [1]) was “highest decrease” and the protein ubiquitinylation (SK-N-SH cells [2]) was “did not change”. For the same compound, the “protection in cell viability with FFAR2 inhibitor” value (SK-N-SH cells [3]; Fenchol together with FFAR2 inhibitor, Aβ) was “no significant protection”, the “Aβ-induced neuronal cell death” value (SK-N-SH cells [3]; vs DMSO controls) was “significantly reduced” and the “increase in intracellular calcium levels” value (FFAR2 signaling [4]) was “highest increase”. The paralytic attacks (C. elegans CL4176) was “decreased”, the Aβ-accumulation (SK-N-SH cells [5]) was “significantly reduced” and the “descending order of phospho-ERK1/2 levels” value (FFAR2 signaling [6]) was “Fenchol>Octopamine>Carvamenthenol>Camphene>Pentanone>Synephrine>Leucinamide>Carene>α-Terpineol>Breneol>L-Fenchone>D-Fenchone>Norpseudoephedrine HCl”. For the same compound, the “levels of phospho-ERK1/2 proteins” value (FFAR2 signaling [6]; vs rest of selected compounds) was “highest in Fenchol and comparable to acetate” and the “number of senescent neuronal cells” value (SK-N-SH cells [7]) was “significantly reduced”.
